Assay results from PubChem BioAssay (NCI).
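Step 1: Grow cells in 96-well plates. Step 2: Expose to compound for 48 hours at 5 concentrations. Step 3: Interpolate endpoints linearly; if unreached, use highest concentration. TGI marks complete inhibition of growth.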

Assays:
Test in all cases: NCI anticancer screen, dose series, 48 h
[1] = system: 786-0 renal
[2] = system: A549 NSCLC
[3] = system: CAKI-1 renal
[4] = system: DLD-1 colon
[5] = system: DMS 273 small cell lung
[6] = system: HCT-15 colon
[7] = system: IGROV1 ovarian
[8] = system: NCI-H23 lung
[9] = system: DMS 114 small cell lung
[10] = system: BT-549 breast
[11] = system: HS 578T breast
[12] = system: T-47D breast

Structure (SMILES)	TGI [1] [µM]	TGI [2] [µM]	TGI [3] [µM]	TGI [4] [µM]	TGI [5] [µM]	TGI [6] [µM]	TGI [7] [µM]	TGI [8] [µM]	TGI [9] [µM]	TGI [10] [µM]	TGI [11] [µM]	TGI [12] [µM]
CN(C)CN(C)c1nc(N(C)C)nc(N(C)CN(C)C)n1	> 100	> 100	> 100	> 100	33.3	68.2	> 100	95.8	–	–	–	–
C(=C/c1nc2ccccc2o1)/c1ccc2c(c1)OCO2	–	> 81.4	40	> 100	> 37.5	> 100	> 83	> 100	> 100	–	–	–
CCOC(=O)C(C)N1C(=O)c2ccccc2S1(=O)=O (stereo not given)	–	> 100	> 100	> 100	> 100	> 100	> 100	> 100	> 100	–	–	–
O=C1C(c2c(O)[nH]c3ccc(S(=O)(=O)NCCO)cc23)=Nc2ccccc21	28.9	> 100	> 100	–	–	> 100	> 100	> 100	–	18.7	> 100	50.4
CCCCCCCCCCCCOP(=O)(O)OP(=O)(O)OCC1OC(n2cc(C)c(=O)[nH]c2=O)CC1O (stereo not given)	> 100	> 100	> 100	–	–	> 100	> 100	> 100	–	> 100	> 100	> 100
S=c1nc[nH]c2c1ncn2C1CCCO1 (stereo not given)	> 100	> 100	> 100	> 100	> 100	> 100	> 100	> 100	> 100	–	–	–
CN(C)CCNC(=O)c1c(O)ccc2c1c1c(n2CCc2ccccc2)C(=O)c2ccccc2C1=O	11.3	23.2	19.2	–	–	15.6	21.8	28.8	–	32.6	27.1	8.5
Clc1cc2nnn(C3CCCO3)c2cc1Cl (stereo not given)	> 100	> 100	> 100	–	–	> 100	> 100	> 100	–	> 100	> 100	> 100
O=P(O)(O)CN1CCNCCN(CP(=O)(O)O)CC1	> 100	58.7	> 100	–	–	> 100	> 100	> 100	–	> 100	> 100	> 100
O=C(Nc1ccc(Cl)cc1)c1cc(S(=O)(=O)Nc2n[nH]c(=O)n2-c2ccccc2)c(S)cc1Cl	> 100	> 100	> 100	–	–	> 100	> 100	> 100	–	> 100	> 100	> 100
CCOC(=O)C1=C(C)N(Cc2ccccc2)C2(O)C=CC(=O)C3=C(O)c4ccccc4C(=O)C312 (stereo not given)	26.2	39.8	37.2	–	–	22	17.5	26.7	–	20.2	97.7	45
NS(=O)(=O)c1ccc(N=Nc2ccc(O)c(C(=O)O)c2)cc1	> 100	> 100	> 100	–	–	> 100	> 100	> 100	–	> 100	> 100	> 100
c1cc2c(cc1C1=NCCN1)c1cc(C3=NCCN3)ccc1n2CC1CCCCC1	96.4	> 100	> 100	–	–	> 100	69.7	88.9	–	41.9	32	84.7
CC/C(N)=N\NC(=O)OC(C)(C)C	> 100	> 100	> 100	–	–	> 100	> 100	> 100	–	> 100	> 100	> 100
O=S(=O)(O)c1cc(S(=O)(=O)O)c2c(N=Nc3ccc(N=Nc4ccccc4)cc3)c(O)ccc2c1	> 100	> 100	> 100	–	–	> 100	> 100	> 100	–	> 100	> 100	> 100
Cc1ccc(/C=C2\N=C(N3CCCC(CO)C3)NC2=O)cc1 (stereo not given)	> 100	> 100	> 100	–	–	> 100	> 100	> 100	–	> 100	> 100	> 100
COc1ccc2c(c1)CCC/C2=N\NS(=O)(=O)c1c(C)cc(C)cc1C	37.8	> 100	> 100	–	–	95.3	55	72.4	–	77.2	61.8	53.9
O=C(N/N=C\c1ccc([N+](=O)[O-])s1)c1ccncc1	48.8	> 66.3	49.2	–	–	> 44	26	38.4	–	27.2	50.4	48.4
CC(NC(=O)C(Cc1ccc(OC(=O)c2ccccc2)cc1)NC(=O)OC(C)(C)C)C(=O)NCC(=O)NC(Cc1ccccc1)C(=O)NN (stereo not given)	> 100	> 100	> 100	–	–	> 100	> 100	> 100	–	> 100	> 100	> 100

Structure (SMILES)	TGI [1] [µM]	TGI [2] [µM]	TGI [3] [µM]	TGI [4] [µM]	TGI [5] [µM]	TGI [6] [µM]	TGI [7] [µM]	TGI [8] [µM]	TGI [9] [µM]	TGI [10] [µM]	TGI [11] [µM]	TGI [12] [µM]
O=C1CC(c2ccccc2)S(=O)c2ccccc2N1 (stereo not given)	> 100	> 100	> 100	–	–	> 100	> 100	> 100	–	> 100	> 100	> 100
O=S(=O)(O)c1ccc2c(N=Nc3ccc(Sc4ccc(N=Nc5c(O)ccc6cc(S(=O)(=O)O)ccc56)cc4)cc3)c(O)ccc2c1	> 100	> 100	> 100	–	–	> 100	> 100	> 100	–	> 100	> 100	> 100
CC(=O)NC1C(OCc2ccccc2)OC(CO)C(O)C1OCC(=O)N[C@@H](C)C(=O)N[C@H](CCC(=O)NCCCNc1ccc([N+](=O)[O-])c2[nH]c3ccccc3c(=O)c12)C(N)=O (stereo not given in full)	> 100	> 100	> 100	–	–	> 100	> 100	> 100	–	96.9	90.2	> 100
O=C(NCCCCCN1CCC2(CCCCC2)CC1)C(C1CCCCC1)C1CCCCC1	9.65	16.7	11.6	–	–	12.2	8.78	9.89	–	15.4	9.59	8.43
C=C1C(=O)OC2C3OC(C)(CCC(O)C3COC(C)=O)CC(OC(=O)/C(=C/C)COC(C)=O)C12 (stereo not given)	0.394	22.1	0.39	–	–	0.141	2.85	2.93	–	0.722	31.3	0.424
O=c1[nH]nc(-c2ccccc2)n1-n1cnnc1	> 100	> 100	> 100	–	–	> 100	> 100	> 100	–	> 100	> 100	> 100
COCCN1C(=O)C2c3[nH]c4ccccc4c3C3CCC(C(C)(C)C)CC3C2C1=O (stereo not given)	31.5	39.5	37.6	–	–	36.3	43.4	57.3	–	35.3	38.8	38.5
COc1ccc(-n2cnc3c(NC(Cc4ccccc4)C(=O)O)ncnc32)cc1 (stereo not given)	> 100	> 100	> 100	–	–	> 100	> 100	> 100	–	> 100	> 100	> 100
CC(C)NC(=O)OCc1c(COC(=O)NC(C)C)c(-c2cc[n+](COC(=O)C3CCCCC3)cc2)n2c1CCC2	> 100	> 100	> 100	–	–	> 100	> 100	> 100	–	> 100	> 100	> 100
Cc1ccc(/C=C2/N=C(N/N=C\c3ccccc3)NC2=O)cc1	55.6	> 100	> 100	–	–	> 100	> 100	> 100	–	> 100	85.3	> 100
CCOC(=O)C(C/C=C/CO)N(C)C(=O)OC(C)(C)C (stereo not given)	> 100	> 100	> 100	–	–	> 100	> 100	> 100	–	> 100	> 100	> 100
Cc1cc2ccc(N)nc2[nH]c1=O	> 100	> 100	> 100	–	–	> 100	> 100	> 100	–	> 100	> 100	> 100
Nc1cc2c3c(cccc3c1)C(=O)N(c1ccc(OCCN3CCCC3)cc1)C2=O	31.5	50.8	> 61.5	–	–	26.8	36.4	28.2	–	34.3	55.7	51.6
CCOC(=O)CCC(NC(=O)c1ccc(Nc2nc3ccccc3nc2C(=O)OCC)cc1)C(=O)OCC (stereo not given)	3.46	14.3	14.4	–	–	> 100	9.2	17.8	–	25.7	21.7	7.06
O=c1cc(N2CCCC2)[nH]c(=O)n1-c1ccc(Cl)cc1	> 100	> 100	> 100	–	–	> 100	> 100	> 100	–	> 100	> 100	> 100
COC(=O)c1cc(/C=C\c2cc(OC)ccc2OC)ccc1OC	> 100	> 100	> 100	–	–	> 100	42.2	> 100	–	> 100	> 100	52.1
CC[C@@]1(O)C(=O)OCc2c1cc1n(c2=O)Cc2c-1nc1ccccc1c2/C=N\NC(=O)C(N)Cc1c[nH]c2ccccc12 (stereo not given in full)	> 21.7	25.9	2.52	–	–	> 100	> 81.5	5.42	–	> 100	> 100	> 100
CCOC(=O)c1cc(Br)c(-c2cc(C)co2)[nH]1	> 100	> 100	> 100	–	–	> 100	> 100	> 100	–	> 100	> 100	> 100
